The record followed here is patent publication US8445677B2, “Substituted pyrimidyl guanidine derivatives having anticancer activity” (University of Southern California, priority 2008, dated 2013).

Holding throughout (experiment): MTT cytotoxicity assay (Example 1)
A general note: Formazan colour is commonly taken as a measure of viable cells.

One assay has as its system HEY. In kind it is cell-based, human. As to conditions: 72 h. From the text:
(§1) Human breast cancer cells MDA-MB-435 were purchased from the American Type Culture Collection (Manassas, Va.). The HCT116 p53+/+ and HCT116 p53−/− cells were kindly provided by Dr. Bert Vogelstein (Johns Hopkins Medical Institutions, Baltimore, Md.). The human ovarian carcinoma cell line (HEY) which is naturally resistant to cisplatin, was kindly provided by Dr. Louis Dubeau, University of Southern California (USC) Norris Cancer Center, and NIH3T3 normal mouse fibroblast cells were kindly provided by Dr. Michael Press from USC. HEY and NIH3T3 cells were maintained as monolayer cultures in RPMI, HCT 116 cells in McCoy1s5A media and MDA-MB 435 in DMEM. Media were purchased from (Mediatech, Virginia) and supplemented with 10% fetal bovine serum (Gemini-Bioproducts, Woodland, Calif.), 2 mM L-glutamine and 5% Penicillin/streptomycin from Bio whittaker were purchased from VWR. Cells were incubated at 37° C. in a humidified atmosphere of 5% CO2. To remove the adherent cells from the flask for passaging and counting, cells were washed with PBS without calcium or magnesium, incubated with a small volume of 0.25% trypsin-EDTA solution (Sigma-Aldrich, St. Louis, Mo.) for 5-10 min, and washed with culture medium and centrifuged. All experiments were performed using cells at exponential growth stage. Cells were routinely checked for mycoplasma contamination using a PCR-based assay (Stratagene, Tex., USA).
(§2) Stock solutions (10 mM) of all compounds were prepared in DMSO and stored at −20° C. Further dilutions were made fresh in PBS or cell-culture media right before cell treatment.
(§3) Cytotoxicity was assessed by a 3-(4,s-dimethylthiazol-2-yl)-2,5-diphenyltetrazolium bromide (MTT) assay as previously described.^24 Briefly, cells were seeded in 96-well microtiter plates and allowed to attach overnight. Cells were subsequently treated with continuous exposure to the corresponding drug for 72 h. A MTT solution (at a final concentration of 0.5 mglml) was added to each well, and cells were incubated for 4 h at 37° C. After removal of the medium, DMSO was added and the absorbance was read at 570 nm. All assays were done in triplicate. The IC50 was then determined for each drug from a plot of log (drug concentration) versus percentage of cells killed.

The subject of the next assay is MDA-MB-435. Format: cell-based, human.
Text: as §1, §2, §3

The test system of a further assay is HCT116 p53−/−. Format: cell-based. As to conditions: MTT, 72 h.
Text: as §1, §2, §3

The next assay concerns HCT116 p53+/+. In kind it is cell-based. As to conditions: MTT, 72 h.
Text: as §1, §2, §3

The next assay relates to NIH3T3. Format: cell-based, mouse. As to conditions: Mus musculus, NIH3T3, 72 h.
Text: as §1, §2, §3

SMILES strings stand for the structures. “And” between values parts separate entries of the source, which are not always exact repeats. Identical values can stand only once. A value given as a limit tells only on which side of the number the result lay.

Regarding `Oc1ccc(Br)cc1/C=N/Nc1nc2nonc2nc1Nc1ccc(Cl)cc1` [Compound 6], the IC50 was 1.6 ± 0.6 µM with HEY; less than 3 µM in the assay on HEY (Homo sapiens); 4 ± 1 µM with MDA-MB-435 (72 h); less than 3 µM in the assay on MDA-MB-435 (Homo sapiens, MDA-MB-435, 72 h); less than 3 µM in the assay with HCT116 p53−/− (Homo sapiens, HCT-116, 72 h); 1.6 ± 0.7 µM in the assay with HCT116 p53−/−. Besides, the IC50 was less than 3 µM in the assay on HCT116 p53+/+ (Homo sapiens, HCT-116, 72 h); 2.7 ± 0.6 µM in the assay on HCT116 p53+/+; 2 ± 0.5 µM in the assay with NIH3T3.
Consider `CCCCCCc1nc2ccccc2c(=O)n1NC(=O)c1c(O)c2ccccc2n(CC)c1=O` [Compound 26], for which the IC50 with HEY (Homo sapiens) was 20 µM; with MDA-MB-435 (Homo sapiens, MDA-MB-435, 72 h), more than 20 µM; in the assay with HCT116 p53−/− (Homo sapiens, HCT-116, 72 h) it was more than 10 µM; in the assay with HCT116 p53+/+ (Homo sapiens, HCT-116, 72 h), more than 20 µM; in the assay on NIH3T3 it was 20 µM.
For the compound `O=C(O)c1cc(-c2ccc(C=NNc3nc4nonc4nc3Nc3cccc(Br)c3)o2)ccc1O` [Compound 18], the concentration for half-maximal inhibition (IC50) with HEY (Homo sapiens) was more than 10 µM; in the assay on MDA-MB-435 (Homo sapiens, MDA-MB-435, 72 h), more than 10 µM; in the assay with HCT116 p53−/− (Homo sapiens, HCT-116, 72 h) it was more than 10 µM; with HCT116 p53+/+ (Homo sapiens, HCT-116, 72 h), more than 10 µM; with NIH3T3 it was 11 µM.
As for `Cc1cc(-c2ccc(/C=N/Nc3nc4nonc4nc3Nc3ccccc3F)o2)c(C)c([N+](=O)[O-])c1` [Compound 16], the IC50 with HEY (Homo sapiens) is 0.8 µM; with MDA-MB-435 (Homo sapiens, MDA-MB-435, 72 h), 4 µM; in the assay on HCT116 p53−/− (Homo sapiens, HCT-116, 72 h) it was 0.8 ± 0.1 µM; in the assay on HCT116 p53+/+ (Homo sapiens, HCT-116, 72 h), 1.5 µM; with NIH3T3 it was 2 µM.
Turning to `COc1cc(/C=N/Nc2nc3nonc3nc2Nc2ccc(Cl)cc2)ccc1O` [Compound 7], the IC50 with HEY (Homo sapiens) was 2 µM; in the assay with MDA-MB-435 (Homo sapiens, MDA-MB-435, 72 h), more than 10 µM; with HCT116 p53−/− (Homo sapiens, HCT-116, 72 h) it was 5.5 µM; in the assay with HCT116 p53+/+ (Homo sapiens, HCT-116, 72 h) it was more than 10 µM; in the assay on NIH3T3, more than 10 µM.
Consider `O=C(O)c1cccc(-c2ccc(C=NNc3nc4nonc4nc3Nc3ccc(F)cc3)o2)c1` [Compound 15], for which the IC50 was 2.8 µM and 3 µM with MDA-MB-435 (72 h); less than 3 µM in the assay with MDA-MB-435 (Homo sapiens, MDA-MB-435, 72 h); 10 µM in the assay with NIH3T3.
Turning to `Brc1ccc(/C=N/Nc2nc3nonc3nc2Nc2cccc(Br)c2)cc1` [Compound 5], the IC50 in the assay on HEY was 3 µM; in the assay with HEY (Homo sapiens), 2 µM; with MDA-MB-435 (Homo sapiens, MDA-MB-435, 72 h), more than 10 µM; in the assay with HCT116 p53−/− (Homo sapiens, HCT-116, 72 h), 1.1 µM; in the assay on HCT116 p53−/−, 1.2 µM; in the assay with HCT116 p53+/+ (Homo sapiens, HCT-116, 72 h), 2 µM. The IC50 in the assay on NIH3T3 came to 1 µM.
Consider `Cc1ccccc1Nc1nc2nonc2nc1N/N=C/c1cccc2ccccc12` [Compound 12], for which the IC50 in the assay on HEY (Homo sapiens) was more than 10 µM; in the assay with MDA-MB-435 (Homo sapiens, MDA-MB-435, 72 h), more than 10 µM; with HCT116 p53−/− (Homo sapiens, HCT-116, 72 h), 10 µM; with HCT116 p53+/+ (Homo sapiens, HCT-116, 72 h), more than 10 µM; in the assay with NIH3T3 it was 10 µM.
As for `COC(=O)c1ccc(/C=N/Nc2nc3nonc3nc2Nc2ccccc2F)cc1` [Compound 1], the IC50 was 10 µM in the assay on HEY (Homo sapiens); 5 µM in the assay on MDA-MB-435 (Homo sapiens, MDA-MB-435, 72 h); 10 µM with HCT116 p53−/− (Homo sapiens, HCT-116, 72 h); more than 10 µM with HCT116 p53+/+ (Homo sapiens, HCT-116, 72 h); more than 10 µM in the assay on NIH3T3.
`CCCCn1c(=O)c(C(=O)Nc2nnc(C)s2)c(O)c2ccccc21` [Compound 30]: the IC50 in the assay with HEY worked out at 14 µM; in the assay with HEY (Homo sapiens), 10 µM; with MDA-MB-435 (Homo sapiens, MDA-MB-435, 72 h), 7 µM; in the assay with HCT116 p53−/− (Homo sapiens, HCT-116, 72 h), 8 µM; in the assay with HCT116 p53+/+ (Homo sapiens, HCT-116, 72 h), 6 ± 3 µM; in the assay on NIH3T3, 5 µM.
In the case of `CCCn1c(=O)c(C(=O)Nc2nnc(CC(C)C)s2)c(O)c2ccccc21` [Compound 29], the IC50 with HEY (Homo sapiens) is more than 20 µM; in the assay with MDA-MB-435 (Homo sapiens, MDA-MB-435, 72 h) it was more than 20 µM; in the assay with HCT116 p53−/− (Homo sapiens, HCT-116, 72 h) it was more than 10 µM; in the assay with HCT116 p53+/+ (Homo sapiens, HCT-116, 72 h), more than 20 µM; in the assay on NIH3T3, more than 10 µM.
Regarding `c1coc(CNc2nc3nonc3nc2NCc2ccco2)c1` [Compound 21], the IC50 in the assay with HEY (Homo sapiens) is more than 20 µM; with MDA-MB-435 (Homo sapiens, MDA-MB-435, 72 h), more than 20 µM; with HCT116 p53−/− (Homo sapiens, HCT-116, 72 h), more than 10 µM; in the assay with HCT116 p53+/+ (Homo sapiens, HCT-116, 72 h) it was more than 20 µM; with NIH3T3, more than 10 µM.
Regarding `c1cc(N2CCOCC2)ccc1Nc1nc2nonc2nc1Nc1ccc(N2CCOCC2)cc1` [Compound 23], the IC50 in the assay on HEY (Homo sapiens) was more than 10 µM; with MDA-MB-435 (Homo sapiens, MDA-MB-435, 72 h), more than 10 µM; in the assay with HCT116 p53−/− (Homo sapiens, HCT-116, 72 h), more than 10 µM; with HCT116 p53+/+ (Homo sapiens, HCT-116, 72 h) it was more than 10 µM; with NIH3T3 it was more than 10 µM.
`CCCCn1c(=O)c(C(=O)Nc2nc(CC(=O)OCC)cs2)c(O)c2ccccc21` [Compound 32]: the IC50 in the assay with HEY (Homo sapiens) is 15 µM; in the assay on MDA-MB-435 (Homo sapiens, MDA-MB-435, 72 h) it was 20 µM; in the assay on HCT116 p53−/− (Homo sapiens, HCT-116, 72 h), more than 10 µM; with HCT116 p53+/+ (Homo sapiens, HCT-116, 72 h), 10 ± 1 µM; with NIH3T3 it was 8 µM.

In general, IC50 refers to the concentration needed to halve the response being measured. A lower IC50 goes with inhibition by little substance.
